Assays:
[1] = system: KB; assay: Antiproliferative activity against human KB cells assessed as cellular growth inhibition at 10 uM after 72 hrs by MTS assay; type: functional; settings: read-out: GI
[2] = system: HCT-116; assay: Antiproliferative activity against human HCT116 cells assessed as cellular growth inhibition at 10 uM after 72 hrs by MTS assay; type: functional; settings: HCT-116, 72 h, read-out: GI
[3] = system: MCF7; assay: Antiproliferative activity against human MCF7 cells assessed as cellular growth inhibition at 10 uM after 72 hrs by MTS assay; type: functional; settings: MCF7, 72 h, read-out: GI
[4] = system: HL-60; assay: Antiproliferative activity against human HL60 cells assessed as cellular growth inhibition at 10 uM after 72 hrs by MTS assay; type: functional; settings: HL-60, 72 h, read-out: GI
[5] = system: KB; assay: Antiproliferative activity against human KB cells after 72 hrs by MTS assay; type: functional, cell-based
[6] = system: HCT-116; assay: Antiproliferative activity against human HCT116 cells after 72 hrs by MTS assay; type: functional, cell-based; settings: HCT-116, 72 h
[7] = system: MCF7; assay: Antiproliferative activity against human MCF7 cells after 72 hrs by MTS assay; type: functional, cell-based; settings: MCF7, 72 h
[8] = system: HL-60; assay: Antiproliferative activity against human HL60 cells after 72 hrs by MTS assay; type: functional, cell-based; settings: HL-60, 72 h
[9] = system: PC-3; assay: Antiproliferative activity against human PC3 cells assessed as cellular growth inhibition at 10 uM after 72 hrs by MTS assay; type: functional; settings: PC-3, 72 h, read-out: GI
[10] = system: SK-OV-3; assay: Antiproliferative activity against human SKOV3 cells assessed as cellular growth inhibition at 10 uM after 72 hrs by MTS assay; type: functional; settings: SK-OV-3, 72 h, read-out: GI
[11] = Antiproliferative activity against human MCF7/R cells assessed as cellular growth inhibition at 10 uM after 72 hrs by MTS assay; type: functional; settings: MCF7R, read-out: GI
[12] = Antiproliferative activity against human HL60R cells assessed as cellular growth inhibition at 10 uM after 72 hrs by MTS assay; type: functional; settings: read-out: GI

SMILES | inhibition of growth at 10 µM [1] | inhibition of growth at 10 µM [2] | inhibition of growth at 10 µM [3] | inhibition of growth at 10 µM [4] | IC50 [5] | IC50 [6] | IC50 [7] | IC50 [8] | inhibition of growth at 10 µM [9] | inhibition of growth at 10 µM [10] | inhibition of growth at 10 µM [11] | inhibition of growth at 10 µM [12]
COC(=O)[C@@]1(Cc2ccc(OC)cc2)CC(=O)O[C@]1(C)c1ccccc1 | 98% | 56% | 59% | 68% | – | – | – | – | – | – | – | –
COC(=O)C1(Cc2ccccc2)CC(=O)OC1c1ccccc1 (mixture of isomers) | 18% | 0% | 0% | 22% | – | – | – | – | – | – | – | –
COC(=O)C1(Cc2ccc(OC)cc2)CC(=O)OC1c1ccccc1 (mixture of isomers) | 19% | 4% | 0% | 15% | – | – | – | – | – | – | – | –
COC(=O)c1ccc(CC2(C(=O)OC)CC(=O)OC2c2ccccc2)cc1 (mixture of isomers) | 12% | 0% | 0% | 19% | – | – | – | – | – | – | – | –
COC(=O)C1(Cc2cccc(C(F)(F)F)c2)CC(=O)OC1c1ccccc1 (mixture of isomers) | 39% | 14% | 11% | 34% | – | – | – | – | – | – | – | –
COC(=O)C1(Cc2ccc3c(c2)OCO3)CC(=O)OC1c1ccccc1 (mixture of isomers) | 0% | 18% | 11% | 18% | – | – | – | – | – | – | – | –
COC(=O)C1(Cc2ccc(OC)cc2)CC(=O)OC1c1ccccc1C(F)(F)F (mixture of isomers) | 31% | 0% | 0% | 23% | – | – | – | – | – | – | – | –
COC(=O)C1(Cc2ccc(OC)cc2)CC(=O)OC1c1ccc(C(F)(F)F)cc1 (mixture of isomers) | 0% | 0% | 4% | 2% | – | – | – | – | – | – | – | –
COC(=O)C1(Cc2ccc(OC)cc2)CC(=O)OC1c1ccc(F)cc1 (mixture of isomers) | 33% | 0% | 4% | 37% | – | – | – | – | – | – | – | –
COC(=O)C1(Cc2ccc(OC)cc2)CC(=O)OC1c1ccco1 (mixture of isomers) | 32% | 0% | 0% | 29% | – | – | – | – | – | – | – | –
CCCCCCC1OC(=O)CC1(Cc1ccc(OC)cc1)C(=O)OC (mixture of isomers) | 13% | 12% | 28% | 8% | – | – | – | – | – | – | – | –
COC(=O)C1(Cc2ccccc2)CC(=O)OC1(C)c1ccccc1 (mixture of isomers) | 6% | 9% | 13% | 22% | – | – | – | – | – | – | – | –
COC(=O)C1(Cc2ccc(OC)cc2)CC(=O)OC1(C)c1ccccc1 (mixture of isomers) | 95% | 61% | 56% | 82% | 590 nM | 1350 nM | 2760 nM | 870 nM | 68% | 76% | 82% | 92%
COC(=O)C1(Cc2cccc(C(F)(F)F)c2)CC(=O)OC1(C)c1ccccc1 (mixture of isomers) | 21% | 22% | 20% | 21% | – | – | – | – | – | – | – | –
COC(=O)C1(Cc2ccc(OC)cc2)CC(=O)OC1(C)c1cccc(C(F)(F)F)c1 (mixture of isomers) | 38% | 30% | 46% | 52% | – | – | – | – | – | – | – | –
CCC1(c2ccccc2)OC(=O)CC1(Cc1ccc(OC)cc1)C(=O)OC (mixture of isomers) | 11% | 28% | 21% | 30% | – | – | – | – | – | – | – | –
COC(=O)C1(Cc2ccc(OC)cc2)CC(=O)OC1(c1ccccc1)C(F)(F)F (mixture of isomers) | 56% | 20% | 8% | 64% | – | – | – | – | – | – | – | –
COC(=O)C1(Cc2ccccc2)CC(=O)OC12CCCCC2 (racemic) | 7% | 0% | 1% | 4% | – | – | – | – | – | – | – | –

From ChEMBL document CHEMBL1921675, “Synthesis and cytotoxic evaluation of novel paraconic acid analogs” (Bioorg Med Chem Lett, 2011)
